Laboratory results reported in patent publication US20160002247A1, “8-SUBSTITUTED IMIDAZOPYRIMIDINONE DERIVATIVE HAVING AUTOTAXIN INHIBITORY ACTIVITY” (THE UNIVERSITY OF TOKYO, priority 2013, published 2016).

These compounds were tested against T1, Human autotaxin enzyme (Homo sapiens, UniProt Q13822) (assay: Evaluation of autotaxin inhibitor, Method B (Test Example 2): TG-mTMP fluorescence). Details: Assay Method B (Test Example 2), human autotaxin; read-out: Inhibitory Activity (autotaxin enzyme inhibitory activity, IC50 class).
T1 construct: purchased R&D System
Type: biochemical
Experimental: (Method B) Evaluation of Autotaxin Inhibitor
Solution A containing 25 mM Tris-HCl buffer (pH7.5), 100 mM NaCl, 5 mM MgCl2 and 0.1% BSA was prepared. Human autotaxin enzyme (purchased from R&D System) was diluted with Solution A, and 5 μL of which was added to a solution of test compound in DMSO. Furthermore, 5 μl of 0.5 μM TG-mTMP in Solution A was added and allowed to react at room temperature for 2 hours. 5 μl of 150 mM EDTA in Solution A was added to quench the reaction, and the fluorescent dye TokyoGreen, which was produced by the reaction, was detected. The fluorescence was detected using ViewLux (PerkinElmer, Inc.) with an excitation wavelength of 480 nm and a fluorescence wavelength of 540 nm.

SMILES	IC50
N#Cc1ccc(-c2cn3c(=O)cc(NCc4ccc(C(=O)O)cc4)n(CCCC(F)(F)F)c3n2)cc1 [Compound 289]	< 10 nM
CCCCCn1c(N2CCN(C)CC2)cc(=O)n2cc(-c3ccc(Cl)cc3)nc12 [Compound 232]	< 10 nM
CCCCCn1c(C)c(CC(=O)O)c(=O)n2cc(-c3ccc(Cl)cc3)nc12 [Compound 179]	10 to 100 nM
CCCCCn1c(N2CCCC2CCC2CCCCC2)cc(=O)n2cc(-c3ccc(Cl)cc3)nc12 (stereo not drawn) [Compound 279]	10 to 100 nM
CCCCCn1c(N2CCCCC2)cc(=O)n2cc(-c3ccc(Cl)cc3)nc12 [Compound 246]	10 to 100 nM
Cc1cc(=O)n2cc(-c3ccc(Cl)cc3)nc2n1Cc1ccc(C(=O)O)cc1 [Compound 99]	100 to 1000 nM
Cc1cc(=O)n2cc(-c3ccc(Cl)cc3)nc2n1Cc1cccc(C(F)(F)F)c1 [Compound 115]	10 to 100 nM
CCCc1cn2c(=O)ccn(CCCc3ccc(Cl)cc3)c2n1 [Compound 129]	> 1000 nM
CCCCCn1c(N2CCNCC2)cc(=O)n2cc(-c3ccc(Cl)cc3)nc12 [Compound 254]	< 10 nM
CCCCCn1c(C)c(CCC(=O)OCC)c(=O)n2cc(-c3ccc(Cl)cc3)nc12 [Compound 200]	< 10 nM
Cc1cc(=O)n2cc(-c3ccc(Cl)cc3)nc2n1Cc1ccc(Br)cc1F [Compound 97]	10 to 100 nM
Cc1cc(=O)n2cc(-c3ccc(Cl)cc3)nc2n1C(C)c1cccc(F)c1 (stereo not drawn) [Compound 100]	10 to 100 nM
Cc1cc(=O)n2cc(-c3ccc(Cl)cc3)nc2n1Cc1ccc(F)cc1F [Compound 101]	10 to 100 nM
CCCCCn1c(N2CCCC2CCCC)cc(=O)n2cc(-c3ccc(Cl)cc3)nc12 (stereo not drawn) [Compound 277]	10 to 100 nM
Cc1cc(=O)n2cc(-c3ccc(Cl)cc3)nc2n1Cc1ccc(C(C)C)cc1 [Compound 95]	10 to 100 nM
Cc1cc(=O)n2cc(-c3ccc(Cl)cc3)nc2n1Cc1cccc(OCC(=O)O)c1 [Compound 96]	100 to 1000 nM
Cc1cc(=O)n2cc(-c3ccc(Cl)cc3)nc2n1Cc1ccc(-c2ccccc2)cc1 [Compound 88]	100 to 1000 nM

SMILES	IC50
Cc1cc(=O)n2cc(-c3ccc(Cl)cc3)nc2n1Cc1ccc(Cl)cc1F [Compound 90]	10 to 100 nM
CCCCCn1c(-c2ccc(N(C)CC3CCCCO3)cc2)cc(=O)n2cc(-c3ccc(Cl)cc3)nc12 (stereo not drawn) [Compound 420]	10 to 100 nM
CCCCCn1c(-c2ccc(N3CCOCC3)cc2)cc(=O)n2cc(-c3ccc(Cl)cc3)nc12 [Compound 421]	10 to 100 nM
CCCCCn1c(N2CCN(CCN3CCOCC3)CC2)cc(=O)n2cc(-c3ccc(Cl)cc3)nc12 [Compound 191]	< 10 nM
CCCCCn1c(N2CCOCC2)cc(=O)n2cc(-c3ccc(Cl)cc3)nc12 [Compound 234]	< 10 nM
CCCCCn1c(N2CCC(N3CCOCC3)CC2)cc(=O)n2cc(-c3ccc(Cl)cc3)nc12 [Compound 244]	10 to 100 nM
Cc1cc(=O)n2cc(-c3ccc(Cl)cc3)nc2n1Cc1ccc(C(C)(C)C)cc1 [Compound 123]	100 to 1000 nM
CCCCCn1c(NCCN2CCN(C)CC2)cc(=O)n2cc(-c3ccc(Cl)cc3)nc12 [Compound 227]	< 10 nM
CCCCCn1ccc(=O)n2cc(-c3ccc(Cl)cc3)nc12 [Compound 186]	10 to 100 nM
O=C(O)C1CCN(c2cc(=O)n3cc(-c4ccc(Cl)cc4)nc3n2CCCC(F)(F)F)CC1 [Compound 283]	< 10 nM
Cc1cc(=O)n2cc(-c3ccc(Cl)cc3)nc2n1Cc1cccc(F)c1 [Compound 121]	10 to 100 nM
Cc1cc(=O)n2cc(-c3ccc(Cl)cc3)nc2n1Cc1ccncc1 [Compound 109]	100 to 1000 nM
CCCCCn1c(N(CCO)CCO)cc(=O)n2cc(-c3ccc(Cl)cc3)nc12 [Compound 253]	10 to 100 nM
CCCCCn1c(-c2ccc(C(=O)N(C)C)cc2)cc(=O)n2cc(-c3ccc(Cl)cc3)nc12 [Compound 402]	< 10 nM
CCCCCn1c(NCc2ccc3c(c2)OCO3)cc(=O)n2cc(-c3ccc(Cl)cc3)nc12 [Compound 249]	10 to 100 nM
CCCCCn1c(C)c(CCC(=O)O)c(=O)n2cc(-c3ccc(Cl)cc3)nc12 [Compound 180]	< 10 nM
CCCCCOC(=O)Cc1c(C)n(CCCCC)c2nc(-c3ccc(Cl)cc3)cn2c1=O [Compound 215]	< 10 nM

Further lines, results first:

IC50	SMILES
10 to 100 nM	Cc1cc(=O)n2cc(-c3ccc(Cl)cc3)nc2n1CCCC#N [Compound 106]
10 to 100 nM	CCCCCn1c(-c2ccc(N(C)C)cc2)cc(=O)n2cc(-c3ccc(Cl)cc3)nc12 [Compound 399]
> 1000 nM	CCCCCn1c(C)cc(=O)n2cc(-c3ccc(C(=O)OCC)cc3)nc12 [Compound 151]
10 to 100 nM	CCCCCn1c(-c2cc[nH]n2)cc(=O)n2cc(-c3ccc(Cl)cc3)nc12 [Compound 417]
10 to 100 nM	CCCCCn1c(C)c(C)c(=O)n2cc(-c3ccc(Cl)cc3)nc12 [Compound 208]
10 to 100 nM	CCCCCn1c(C)cc(=O)n2cc(-c3cc4ccccc4s3)nc12 [Compound 142]
100 to 1000 nM	CCCCCn1c(C)cc(=O)n2cc(-c3ccc4c(c3)CCC4)nc12 [Compound 150]
10 to 100 nM	CCCCCn1c(-c2cccc(OC)c2)cc(=O)n2cc(-c3ccc(Cl)cc3)nc12 [Compound 396]
< 10 nM	CCCCCn1c(-c2ccc(COC)cc2)cc(=O)n2cc(-c3ccc(Cl)cc3)nc12 [Compound 404]
10 to 100 nM	CCCCCn1c(C2=CCCCC2)cc(=O)n2cc(-c3ccc(Cl)cc3)nc12 [Compound 408]
< 10 nM	CCCCCn1c(N(C)CCC)cc(=O)n2cc(-c3ccc(Cl)cc3)nc12 [Compound 230]
< 10 nM	CCCCCn1c(OCCOC)cc(=O)n2cc(-c3ccc(Cl)cc3)nc12 [Compound 269]
< 10 nM	CCCCCn1c(N2CCC[C@H]2C)cc(=O)n2cc(-c3ccc(Cl)cc3)nc12 [Compound 256]
10 to 100 nM	CCCCCn1c(C)cc(=O)n2cc(-c3ccc(OC(F)F)cc3)nc12 [Compound 155]
10 to 100 nM	CCCCCn1c(Cl)cc(=O)n2cc(-c3ccc(Cl)cc3)nc12 [Compound 176, 7-chloro-2-(4-chlorophenyl)-8-pentylimidazo[1,2-a]pyrimidin-5(8H)-one]
< 10 nM	CCCCCn1c(N2CC(O)C2)cc(=O)n2cc(-c3ccc(Cl)cc3)nc12 [Compound 274]
10 to 100 nM	CCCCCn1c(C)cc(=O)n2cc(-c3ccc(C)cc3C)nc12 [Compound 154]
10 to 100 nM	CCCCCn1c(C(=O)O)cc(=O)n2cc(-c3ccc(Cl)cc3)nc12 [Compound 372]
> 1000 nM	CCCCCn1c(C)cc(=O)n2cc(-c3ccc4ccccc4c3)nc12 [Compound 153]
10 to 100 nM	CCCCCn1c(NCC(=O)O)cc(=O)n2cc(-c3ccc(Cl)cc3)nc12 [Compound 218]
10 to 100 nM	CCCCCn1c(NCc2ccccn2)cc(=O)n2cc(-c3ccc(Cl)cc3)nc12 [Compound 229]
10 to 100 nM	CCCCCn1c(C)cc(=O)n2cc(-c3ccc(Cl)cc3Cl)nc12 [Compound 158]
< 10 nM	CCCCCn1c(-c2ccc(OC)cc2)cc(=O)n2cc(-c3ccc(Cl)cc3)nc12 [Compound 397]
< 10 nM	CCCCCn1c(C)cc(=O)n2cc(-c3ccc(C#N)cc3)nc12 [Compound 157]
100 to 1000 nM	CCCCCn1c(C)cc(=O)n2cc(-c3ccc4c(c3)CCO4)nc12 [Compound 149]
10 to 100 nM	CCCCCn1c(C)cc(=O)n2c(C)c(-c3ccc(Br)cc3)nc12 [Compound 169]
10 to 100 nM	CCCCCn1c(-c2ccccc2OC)cc(=O)n2cc(-c3ccc(Cl)cc3)nc12 [Compound 395]
10 to 100 nM	CCCCCn1c(C)c(CC)c(=O)n2cc(-c3ccc(Cl)cc3)nc12 [Compound 205]
< 10 nM	CCCCCn1c(N2CCC(C)C2)cc(=O)n2cc(-c3ccc(Cl)cc3)nc12 (stereo not drawn) [Compound 257]
10 to 100 nM	CCCCCn1c(NCc2ccc(OC)cc2)cc(=O)n2cc(-c3ccc(Cl)cc3)nc12 [Compound 226]

Same assay, conditions: Assay Method: Method B (Test Example 2); read-out: Inhibitory Activity (Enzyme Inhibitory Activity, IC50)

SMILES	IC50
CCC/C=C/n1c(C)cc(=O)n2cc(-c3ccc(Cl)cc3)nc12 [Compound 44]	10 to 100 nM
Cc1cc(=O)n2cc(-c3ccc(Cl)cc3)nc2n1CC(=O)NC(C)C [Compound 68]	> 1000 nM
CCOC(=O)c1ccc(Cn2c(C)cc(=O)n3cc(-c4ccc(Cl)cc4)nc23)cc1 [Compound 86]	100 to 1000 nM
CCC(=O)C(C)n1c(C)cc(=O)n2cc(-c3ccc(Cl)cc3)nc12 (stereo not drawn) [Compound 51]	10 to 100 nM
Cc1cc(=O)n2cc(-c3ccc(Cl)cc3)nc2n1CC(=O)C1CCCCC1 [Compound 69]	> 1000 nM
Cc1cc(=O)n2cc(-c3ccc(Cl)cc3)nc2n1C(C)C(=O)OC(C)(C)C (stereo not drawn) [Compound 74]	100 to 1000 nM
CCN(CC)C(=O)Cn1c(C)cc(=O)n2cc(-c3ccc(Cl)cc3)nc12 [Compound 62]	100 to 1000 nM

Other lines, results leading:

IC50	SMILES
< 10 nM	Cc1cc(=O)n2cc(-c3ccc(Cl)cc3)nc2n1CCCC(C)C [Compound 81]
10 to 100 nM	Cc1cc(=O)n2cc(-c3ccc(Cl)cc3)nc2n1CCC(C)C [Compound 79]
100 to 1000 nM	Cc1ccccc1Cn1c(C)cc(=O)n2cc(-c3ccc(Cl)cc3)nc12 [Compound 64]
10 to 100 nM	Cc1cc(=O)n2cc(-c3ccc(Cl)cc3)nc2n1Cc1ccccc1F [Compound 53]
10 to 100 nM	CCC(=O)Cn1c(C)cc(=O)n2cc(-c3ccc(Cl)cc3)nc12 [Compound 28]

Same assay, conditions: Inhibitory Activity (Enzyme Inhibitory Activity, IC50), Assay Method: Method B (Test Example 2)

IC50	SMILES
< 10 nM	CCOC(=O)Cn1c(C)cc(=O)n2cc(-c3ccc(Cl)cc3)nc12 [Compound 20]
< 10 nM	CCCCCn1c(C)cc(=O)n2cc(-c3ccc(Cl)cc3)nc12 [Compound 3, 2-(4-chlorophenyl)-7-methyl-8-pentyl-imidazo[1,2-a]pyrimidin-5(8H)-one]
